Article PMC12024912, “Druggability Studies of Benzene Sulfonamide Substituted Diarylamide (E3) as a Novel Diuretic” (Biomedicines, 2025)
Read-outs that look alike come from different tables or passages of the source.

Tests used:
[1] = Blood stability, human; assay type: in vitro ADME; settings: plasma, n=3
Procedure: Plasma from mice, rats, rabbits, and humans was obtained from blood after centrifugation at 3000 r/min for 10 min. Simulated gastric fluid (SGF, pH = 1, containing pepsin) and simulated intestinal fluid (SIF, pH = 6.8, containing trypsin) were configured previously in the experiments. SD rats and mice were collected, and after removing the mucus layer from the small intestine and colon, 20 times the volume of liquid bacterial culture medium was added. An intestinal microbiota suspension was obtained after anaerobic cultivation on a shaking table at 37 °C for 12 h. In the aforementioned systems, E3 was added at a final concentration of 1 μmol/L at 37 °C for different incubation times (0, 10, 20, 30, 60, 120, and 240 min). In liver metabolic stability assays, E3 was incubated with liver microsomes or liver homogenate from mice or rats for 60 min at 37 °C. The stop solution, 5 ng/mL tolbutamide (internal standard, IS) in acetonitrile, was added to stop the metabolic process. Post-centrifugation (18,000× g, 10 min, 4 °C), supernatants were subjected to liquid chromatography–tandem mass spectrometry (LC–MS/MS). Analyte-to-IS peak area ratios quantified residual percentages via Equation (2):Remaining% = (E3peak area/ISpeak area at different time)/(E3peak area/ISpeak area at 0 min) × 100%.(2)

[2] = Pharmacokinetic study in rats; assay type: in vivo, rat
Procedure: Male SD rats were allowed free access to food in a controlled environment of 22 ± 2 °C, with a humidity level of 55% ± 5%, and maintained under a 12 h light/dark cycle. In the oral administration groups, E3 was delivered in a 0.5% CMC-Na solution at a dosage of 4 mg/kg body weight. Blood samples were collected by the orbital venous plexus and kept on ice at the following time points: 0.083, 0.167, 0.25, 0.5, 1, 2, 4, 6, 8, 12, and 24 h. E3 formulations (DMSO:PEG400:saline = 10:30:60, v/v) were administered via tail vein (1 mg/kg). Serial blood sampling (0.033, 0.083, 0.167, 0.333, 0.5, 1, 2, 4, 8, 12, and 24 h post-dose) yielded plasma via centrifugation (3000 r/min, 10 min, 4 °C), stored at −80 °C until PK analysis using DAS 3.2.8 (noncompartmental analysis model).
The analyte E3 and IS were dissolved in DMSO to generate the stock solutions. The working calibration of E3 was gradient-diluted with MeOH/H2O (1:1, v/v). Three microliters of working solutions were spiked with 27 μL of the blank rat plasma to establish the calibration standards. The final concentrations of the standard samples were 1, 2, 5, 10, 50, 250, 500, and 1000 ng/mL. Quality control samples (3/100/800 ng/mL) were prepared using identical protein precipitation protocols. Briefly, 30 μL calibrators and biological matrices were mixed with 450 μL stop solution, vortexed (5 min), and centrifuged (18,000× g, 10 min, 4 °C). Processed supernatants (2 μL injection volume) were subjected to LC-MS/MS analysis.
The analysis was conducted by an Xevo TQ-S Cronos Triple Quadrupole Mass Spectrometer coupled with an ACQUITY UPLC (Waters Corp, Milford, MA, USA). The chromatographic separation was conducted in an ACQUITY UPLC BEH C18 1.7 µm column (Waters, Milford, MA, USA) at 40 °C with a flow rate of 0.4 mL/min. The mobile phases were 0.1% (v/v) formic acid in water (A) and pure ACN (B). […] An electrospray ionization (ESI) source with multiple–reaction monitoring (MRM) in positive–ion mode was employed to quantify the analytes with the transitions of m/z 385.11 > 244.19 and m/z 271.136 > 91.01 for E3 and IS, respectively. The optimized cone voltage is 10 V and 24 V for E3 and IS, respectively. The collision energy is 12 V and 32 V for E3 and IS, respectively. MassLynx v4.2 (Waters Corp, Milford, MA, USA) was used for data acquisition and analysis.

[3] = Acute oral toxicity test in mice; assay type: in vivo; settings: both sexes, mouse, in vivo, 5000 mg/kg; mice; oral; 14-day acute toxicity assay
Procedure: (§1) The acute oral toxicity test was performed according to “Guidance on Single Dose Toxicity Study for Pharmaceuticals” (2014), “Guidance for industry: single dose acute toxicity testing for pharmaceuticals” (1996). The initial dose for preliminary trials was established at 5000 mg/kg. A total of three female and three male mice were utilized (one of each sex for preliminary experiments and two for subsequent experiments). Following a 12 h fasting period, one male and one female mouse were selected and administered E3. After 24 h of confirming survival and the absence of abnormal behavior, the remaining four animals were given the same dose. The control group was given solvent (0.5% CMC-Na). Observations of all animals on the day of dosing (d 0) and in the days following were recorded, including general conditions (signs of toxicity, onset of symptoms, recovery period), changes in body weight, and mortality. After 14 d, blood and vital organ tissues were collected, and serum biochemical indicators as well as histopathological examinations were conducted.

[4] = system: mice; assay: Acute oral toxicity test in mice; assay type: in vivo
Procedure: as §1

[5] = male, SD, rat, plasma, iv, 1 mg/kg, single i.v. 1 mg/kg, n = 5
[6] = male, SD, rat, plasma, iv, single i.v. 1 mg/kg, n = 5
[7] = male, SD, rat, plasma, po, 4 mg/kg, single p.o. 4 mg/kg, n = 5
[8] = male, SD, rat, plasma, po, single p.o. 4 mg/kg, n = 5

Compound: CC(=O)c1ccc(C(=O)Nc2cccc(NS(=O)(=O)c3ccccc3)c2)o1 [Compound E3, 5-acetyl-N-(3-(phenylsulfonamido)phenyl)furan-2-carboxamide]
- remaining at 1 μmol/L [1]: 54.1%
- plasma concentration within 24 h ([2]; after intragastric gavage administration): less than 2 ng/mL
- MRT [2, 5]: 1.1 h
- half-life [2, 5]: 1.9 h
- AUC(0-inf) [2, 6]: 1120 ng·h/mL
- AUC(0-t) [2, 6]: 1120 ng·h/mL
- Cmax ([2]; male, SD, rat, plasma, iv, single i.v. 1 mg/kg, n = 5, read-out: C max): 2540 ng/mL
- bioavailability ([2]; male, SD, rat, plasma, oral, p.o. 4 mg/kg vs i.v. 1 mg/kg, read-out: F (oral bioavailability)): 21.1%
- MRT [2, 7]: ~6.1 h
- Tmax [2, 7]: ≤ 2 h
- half-life [2, 7]: ~4.9 h
- Cmax ([2]; male, SD, rat, plasma, po, p.o. 4 mg/kg, conversion of 170.3 ng/mL, read-out: Cmax in molar units): 443 nM
- AUC(0-inf) [2, 8]: 943 ng·h/mL
- AUC(0-t) [2, 8]: 919 ng·h/mL
- CL/F [2, 8]: 70 mL/min/kg
- Cmax ([2]; male, SD, rat, plasma, po, single p.o. 4 mg/kg, n = 5, read-out: C max): 170 ng/mL
- V (V/F row; V for the i.v. group) ([2]; single i.v. 1 mg/kg, n = 5): 2.5 L/kg
- V/F ([2]; single p.o. 4 mg/kg, n = 5): 30.1 L/kg
- LD50 at 14 d [3]: > 5000 mg/kg
- Brain organ index ([4]; female mice, 5g/kg, n=3): 1.72±0.10%
- Kidney organ index ([4]; female mice, 5g/kg, n=3): 1.06±0.02%
- Liver organ index ([4]; female mice, 5g/kg, n=3): 4.86±0.08%
- Lung organ index ([4]; female mice, 5g/kg, n=3): 0.73±0.04%
- Ovary organ index ([4]; female mice, 5g/kg, n=3): 0.11±0.02%
- Spleen organ index ([4]; female mice, 5g/kg, n=3): 0.4±0.01%
- Thymus organ index ([4]; female mice, 5g/kg, n=3): 0.27±0.06%
- Uterus organ index ([4]; female mice, 5g/kg, n=3): 0.3±0.02%
- Brain organ index ([4]; male mice, 5g/kg, n=3): 1.35±0.01%
- Epididymis organ index ([4]; male mice, 5g/kg, n=3): 0.17±0.01%
- Kidney organ index ([4]; male mice, 5g/kg, n=3): 1.26±0.02%
- Liver organ index ([4]; male mice, 5g/kg, n=3): 5.16±0.12%
- Lung organ index ([4]; male mice, 5g/kg, n=3): 0.72±0.02%
- Spleen organ index ([4]; male mice, 5g/kg, n=3): 0.37±0.02%
- Testis organ index ([4]; male mice, 5g/kg, n=3): 0.73±0.02%
- Thymus organ index ([4]; male mice, 5g/kg, n=3): 0.25±0.01%
- H&E staining of heart, kidney, liver, spleen, and brain ([4]; mouse, in vivo, po, 5000 mg/kg): no apparent abnormalities
- organ indexes ([4]; mouse, in vivo, po, 5000 mg/kg): no significant difference
- representative blood biochemical indicators ([4]; mouse, in vivo, po, 5000 mg/kg): not statistically altered
